Publication PMC11369174, “Proteome-scale characterisation of motif-based interactome rewiring by disease mutations” (Molecular Systems Biology, 2024)
Entries after “also recorded” stand apart in the source; their conditions may differ.

Tests used:
NEDD4 WW2 = NEDD4 WW2 (Homo sapiens, UniProt P46934); assay: FP displacement assay, NEDD4 WW2; format: binding; conditions: read-out: KD-values [µM] + SEM
Experimental: For saturation experiments, a dilution series of the respective protein domains was generated (25 µL) and 10 nM fluorescein isothiocyanate (FITC)-labelled peptide (diluted in 50 mM sodium phosphate buffer pH 7.4, 0.05% Tween) were added in an end volume of 50 µL. A control experiment titrating GST was performed for the binding of the NEDD4 WW2 domain, since the GST-tagged construct was used for affinity measurements.
If the raw values indicated a FITC-contamination of the unlabelled peptide, the data was excluded and a new batch of peptide was ordered for remeasuring the affinity.

ABL1 SH3 = ABL1 SH3 (Homo sapiens, UniProt P00519); assay: GenVar_HD2 ProP-PD phage selection, ABL1 SH3; format: binding; conditions: for mutant_found: True/False if a mutated peptide was found in selection; for wildtype_found: True/False if a wild type peptide was found in selection; for mutation_effect_on_PPI: bait-mutation pair categorized as diminished, enhanced or no_effect; for max_mutant_confidence: maximum confidence for an enriched mutated peptide; for max_wildtype_confidence: maximum confidence for an enriched wild type peptide; for confidence: confidence of the enriched peptide; for overlap: overlapping peptides; for replicates: replicates in which the peptide was found
Sequence of ABL1 SH3 (P00519 60-121): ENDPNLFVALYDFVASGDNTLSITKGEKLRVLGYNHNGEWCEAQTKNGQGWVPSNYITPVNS

MAP1LC3B ATG8 [1] = target: T1, MAP1LC3B ATG8 (Homo sapiens, UniProt Q9GZQ8); assay: GenVar_HD2 ProP-PD phage selection, MAP1LC3B ATG8; conditions: bait MAP1LC3B ATG8; from NGS counts of overlapping wild-type/mutant library peptide pairs; positive = mutation enhances, negative = disrupts binding
Experimental: Phage display screens were performed according to previous reports (Benz et al, [2022]; Ali et al, [2020]) and for four consecutive selection rounds with five to six replicates per bait protein domain against the […] library.
On the first day, both bait (15 µg in 100 µL PBS) and control protein domains (GST and MBP; 10 µg in 100 µL PBS) were immobilised on a 96-well MaxiSorb plate (Nunc) overnight in the cold room while shaking. Additionally, a 10 mL culture of Omnimax E. coli bacteria supplemented with 10 µg/mL tetracycline was incubated overnight at 37 °C at 200 rpm.
First, protein solutions were removed from both control and bait protein domain plates and the wells were blocked with 0.5% BSA in PBS (200 µL/well) for 1 h in the cold room while shaking. After that, three Omnimax E. coli cultures were started supplemented with either 30 µg/mL kanamycin, 100 µg/mL carbenicillin and 10 µg/mL tetracycline and incubated at 37 °C and 200 rpm. The two first cultures served as a means to check for helper phage contamination (kanamycin) and phages with library phagemid contamination (carbenicillin) of the culture used for elution of the phages during selections. The tetracycline Omnimax E. coli culture was grown until OD at 600 nm reached 0.6–0.8.
Naïve phage libraries were precipitated (10 µL/well of bait protein domain) by diluting the library tenfold with PBS, adding one-fourth of 20% […] and 400 mM NaCl and incubating the mixture for 15 min on ice. Subsequently, phages were spun down for 15 min at 13,000 × g and resuspended in 0.5% BSA and 0.05% Tween-20 in PBS (100 µL/well). Control domain plates were washed four times with 200 µL 0.05% Tween-20 in PBS, 100 µL of the naïve phage library (10^11 phages/mL) were added to every well and the plates incubated for 1 h in the cold room while shaking. Next, protein bait domain plates were washed four times with 0.05% Tween-20 in PBS and the phage solution from the control protein plate was transferred to the respective wells on the protein bait domain plate. […]

MAP1LC3B ATG8 [2] = target: T1, MAP1LC3B ATG8; assay: Isothermal titration calorimetry, MAP1LC3B ATG8; format: binding; set-up: S∆T / ∆H: unit not given here; conditions: ITC; for N (stoichiometry of the interaction): N value from the fit or set if necessary
MAP1LC3B ATG8 [3] = target: T1, MAP1LC3B ATG8; assay: FP displacement assay, MAP1LC3B ATG8; format: binding; conditions: for Kd: read-out: KD-values [µM] + SEM
Experimental: (§1) FP experiments were performed, as previously described (Kliche et al, [2021], [2023]), on an iD5 plate reader (Molecular devices) using black half-area non-binding 96-well plates (Corning). In order to calculate the FP signal in millipolarisation (mP), the FITC-labelled peptides were excited at 485 nm and the emitted light was measured at 535 nm in two different angles. For saturation experiments, a dilution series of the respective protein domains was generated (25 µL) and 10 nM fluorescein isothiocyanate (FITC)-labelled peptide (diluted in 50 mM sodium phosphate buffer pH 7.4, 0.05% Tween) were added in an end volume of 50 µL. A control experiment titrating GST was performed for the binding of the NEDD4 WW2 domain, since the GST-tagged construct was used for affinity measurements. For fitting the data, the buffer-corrected reduced values were plotted in GraphPad PRISM against the respective protein concentration and the KD-values were obtained by fitting against the quadratic equation (Gianni et al, [2005]).
(§2) The buffer-corrected reduced values were subsequently plotted against the logarithmic unlabelled peptide concentration to derive the IC50 values by using the sigmoidal dose-response (x is logarithmic) fit in GraphPad PRISM and calculate the KD values as described previously (Nikolovska-Coleska et al, [2004]).

KPNA4 ARM major = KPNA4 ARM major (Homo sapiens, UniProt O00629); assay: FP displacement assay, KPNA4 ARM major pocket; format: binding; conditions: from FP displacement KD values, KPNA4 ARM major pocket
Sequence of KPNA4 ARM major (O00629 68-487): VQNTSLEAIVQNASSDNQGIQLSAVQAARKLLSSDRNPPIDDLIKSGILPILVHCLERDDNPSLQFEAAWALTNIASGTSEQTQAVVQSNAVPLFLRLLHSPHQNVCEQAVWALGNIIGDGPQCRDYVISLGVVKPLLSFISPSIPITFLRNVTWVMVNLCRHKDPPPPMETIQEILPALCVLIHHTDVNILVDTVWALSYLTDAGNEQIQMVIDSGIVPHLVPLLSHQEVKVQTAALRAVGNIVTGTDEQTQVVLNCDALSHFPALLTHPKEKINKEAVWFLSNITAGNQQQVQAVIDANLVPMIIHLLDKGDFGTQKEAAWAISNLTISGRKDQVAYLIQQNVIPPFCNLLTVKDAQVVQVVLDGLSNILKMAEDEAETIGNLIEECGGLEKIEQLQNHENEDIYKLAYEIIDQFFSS
Experimental: as §1, §2

KPNA4 ARM = assay: GenVar_HD2 ProP-PD phage selection, KPNA4 ARM; format: binding, human; conditions: for Mutation enrichment score: bait KPNA4 ARM, from NGS counts of overlapping wild-type/mutant library peptide pairs, positive = mutation enhances, negative = disrupts binding; for max_promiscuity / max_specificity: bait-prey protein level, bait_accession O00629
KPNA7 ARM major = KPNA7 ARM major (Homo sapiens, UniProt A9QM74); assay: FP displacement assay, KPNA7 ARM major pocket; format: binding; conditions: for Kd: read-out: KD-values [µM] + SEM
Sequence of KPNA7 ARM major (A9QM74 66-488 limits assumed): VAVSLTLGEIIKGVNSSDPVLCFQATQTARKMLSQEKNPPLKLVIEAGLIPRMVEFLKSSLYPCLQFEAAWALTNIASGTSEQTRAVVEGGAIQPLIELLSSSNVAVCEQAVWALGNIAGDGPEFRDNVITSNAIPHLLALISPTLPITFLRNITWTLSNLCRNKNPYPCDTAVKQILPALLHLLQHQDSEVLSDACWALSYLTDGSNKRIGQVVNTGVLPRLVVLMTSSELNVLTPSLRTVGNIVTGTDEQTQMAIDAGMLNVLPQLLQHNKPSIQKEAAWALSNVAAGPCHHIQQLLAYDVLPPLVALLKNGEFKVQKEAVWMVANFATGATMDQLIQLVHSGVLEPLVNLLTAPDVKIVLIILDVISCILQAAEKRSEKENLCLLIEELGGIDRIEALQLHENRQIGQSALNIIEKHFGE
Experimental: as §1, §2

[4] = phage selection, bait ABL1_SH3__P00519_60_121
[5] = KD (isothermal titration calorimetry), 50 mM sodium phosphate pH 7.4, 1 mM DTT, peptide titrated in tenfold excess, 16 injections
[6] = bait domain-prey protein level, bait ABL1_SH3__P00519_60_121

Sequence of NEDD4 WW2 (P46934 765-803 limits assumed): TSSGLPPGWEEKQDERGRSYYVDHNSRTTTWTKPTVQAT

With “Ac-PIPGTPPPNYDSLRLQ-NH2 [SCNN1B_611-626 wild-type]” the Kd (NEDD4 WW2) was 39 ± 3 µM.
With “KPPEEPGQCPAPEELPLFPPSGEPSLSPLLGEPALSEPGEP [O14686.P886S]” the mutant_found (ABL1 SH3) was “TRUE”, the wildtype_found (ABL1 SH3) was “TRUE” and the mutation_effect_on_PPI (ABL1 SH3; bait ABL1_SH3__P00519_60_121) was “no_effect”. For the same compound, the max_mutant_confidence (ABL1 SH3) was 1 and the max_wildtype_confidence (ABL1 SH3) was 3.
LDSSEPRFSPPLSPPG was tested, and the promiscuity (ABL1 SH3; [4]) was 1, the specificity (ABL1 SH3; [4]) was 1 and the mean_counts_% (ABL1 SH3; phage selection, bait ABL1_SH3__P00519_60_121, NGS counts) was 0.0009534%. For the same compound, the confidence (ABL1 SH3; [4]) was 2, the overlap (ABL1 SH3; [4]) was 1 and the replicates (ABL1 SH3; [4]) was 1.
For “Ac-EDEVYEILRDTSEEDS-NH2 [BRCA2_292-307 T298I/V299L/V300R]”, the Mutation enrichment score (MAP1LC3B ATG8 [1]) was 15, the Ka (MAP1LC3B ATG8 [2]; replicate 1) was 388000 and the “S∆T” value (MAP1LC3B ATG8 [2]; replicate 1) was 3.04. For the same compound, the “∆H” value (MAP1LC3B ATG8 [2]; replicate 1) was -6718, the “N (stoichiometry of the interaction)” value (MAP1LC3B ATG8 [2]; replicate 1) was 0.744 and the Ka (MAP1LC3B ATG8 [2]; replicate 2) was 524000. The “S∆T” value (MAP1LC3B ATG8 [2]; replicate 2) was 3.49, the “∆H” value (MAP1LC3B ATG8 [2]; replicate 2) was -6766 and the “N (stoichiometry of the interaction)” value (MAP1LC3B ATG8 [2]; replicate 2) was 0.685. For the same compound, the Ka (MAP1LC3B ATG8 [2]; replicate 3) was 3280000, the “S∆T” value (MAP1LC3B ATG8 [2]; replicate 3) was 8.75 and the “∆H” value (MAP1LC3B ATG8 [2]; replicate 3) was -6280. The “N (stoichiometry of the interaction)” value (MAP1LC3B ATG8 [2]; replicate 3) was 0.649, the Kd (MAP1LC3B ATG8 [2]; [5]) was 2 µM and the Kd (MAP1LC3B ATG8 [3]) was 0.52 ± 0.01 µM.
With “Ac-EPSEKCTRLEEEIVEY-NH2 [CDC45_152-166 R157C]” the “weakened binding, mutant vs wild-type peptide” value (KPNA4 ARM major) was 70 fold, the Mutation enrichment score (KPNA4 ARM) was −7 and the “loss of binding, mutant vs wild-type peptide” value (KPNA7 ARM major; from FP displacement KD values, KPNA7 ARM major pocket) was 50 fold. It also gave a Kd (KPNA7 ARM major) of 380 ± 15 µM.
Compound EPRFSPPHSPPGPAMP has a promiscuity (ABL1 SH3; [4]) of 2, a specificity (ABL1 SH3; [4]) of 0.9643 and a confidence (ABL1 SH3; [4]) of 3. The overlap (ABL1 SH3; [4]) was 1 and the replicates (ABL1 SH3; [4]) was 5.
For PLFPPPGEPSLSPLLG, the promiscuity (ABL1 SH3; [4]) was 2, the specificity (ABL1 SH3; [4]) was 0.9995 and the confidence (ABL1 SH3; [4]) was 3. It also gave an overlap (ABL1 SH3; [4]) of 0 and a replicates (ABL1 SH3; [4]) of 6.
In the case of NGSLVPVPPTTPAPGV, the promiscuity (ABL1 SH3; [4]) is reported as 2, the specificity (ABL1 SH3; [4]) is reported as 0.8421 and the confidence (ABL1 SH3; [4]) is reported as 2. It also gave an overlap (ABL1 SH3; [4]) of 0 and a replicates (ABL1 SH3; [4]) of 4.
“Ac-YPRMPEAARPVAPAPAAP-NH2 [TP53_64-80 P72R]” was tested, and the Mutation enrichment score (ABL1 SH3; bait ABL1 SH3, from NGS counts of overlapping wild-type/mutant library peptide pairs, positive = mutation enhances, negative = disrupts binding) was −6.
O14647 showed a max_promiscuity (KPNA4 ARM) of 11 and a max_specificity (KPNA4 ARM) of 0.5779.
For “HYLDLLALLLDSSEPRFSPPHSPPGPCMPEVFLEAAVALIQ [O15287.P386H]”, the mutant_found (ABL1 SH3) was “TRUE”, the wildtype_found (ABL1 SH3) was “TRUE” and the mutation_effect_on_PPI (ABL1 SH3; bait ABL1_SH3__P00519_60_121) was “no_effect”. The max_mutant_confidence (ABL1 SH3) was 3 and the max_wildtype_confidence (ABL1 SH3) was 4.
With “KPPEEPGQCPAPEELPLFPPTGEPSLSPLLGEPALSEPGEP [O14686.P886T]” the mutant_found (ABL1 SH3) was “FALSE”, the wildtype_found (ABL1 SH3) was “TRUE” and the mutation_effect_on_PPI (ABL1 SH3; bait ABL1_SH3__P00519_60_121) was “diminished”. It also gave a max_wildtype_confidence (ABL1 SH3) of 3.
With “HYLDLLALLLDSSEPRFSPPLSPPGPCMPEVFLEAAVALIQ [O15287.P386L]” the mutant_found (ABL1 SH3) was “TRUE”, the wildtype_found (ABL1 SH3) was “TRUE” and the mutation_effect_on_PPI (ABL1 SH3; bait ABL1_SH3__P00519_60_121) was “no_effect”. The max_mutant_confidence (ABL1 SH3) was 2 and the max_wildtype_confidence (ABL1 SH3) was 4.
Compound A7E2Y1 has a max_promiscuity (KPNA4 ARM) of 10 and a max_specificity (KPNA4 ARM) of 0.7829.
“LSPVRSPTPPAAGFQPLLNGRLVPVPPTTPAPGVQLDVEAL [B1AK53.S719R]” was tested, and the mutant_found (ABL1 SH3) was “FALSE”, the wildtype_found (ABL1 SH3) was “TRUE” and the mutation_effect_on_PPI (ABL1 SH3; bait ABL1_SH3__P00519_60_121) was “no_effect”. The max_wildtype_confidence (ABL1 SH3) was 2.
For EPRFSPPPSPPGPAMP, the promiscuity (ABL1 SH3; [4]) was 5, the specificity (ABL1 SH3; [4]) was 0.995 and the confidence (ABL1 SH3; [4]) was 4. For the same compound, the overlap (ABL1 SH3; [4]) was 1 and the replicates (ABL1 SH3; [4]) was 6.
Work on EGR2 yielded a max_promiscuity (ABL1 SH3; [6]) of 5 and a max_specificity (ABL1 SH3; [6]) of 0.973.
Compound `CC(=O)NCC(=O)N[C@@H](CC(=O)O)C(=O)N[C@@H](CC(=O)O)C(=O)N[C@@H](CC(=O)O)C(=O)N[C@@H](Cc1c[nH]c2ccccc12)C(=O)N[C@H](C(=O)N[C@@H](Cc1c[nH]cn1)C(=O)N[C@@H](CC(C)C)C(=O)N[C@@H](CO)C(=O)N[C@@H](CO)C(=O)N[C@@H](CCCCN)C(=O)N[C@@H](CCC(=O)O)C(=O)N[C@H](C(=O)N[C@@H](CC(=O)O)C(=O)N1CCC[C@H]1C(=O)N[C@@H](CO)C(N)=O)C(C)C)[C@@H](C)O` [SQSTM1_334-349 wild-type] has a Kd (MAP1LC3B ATG8 [3]) of 0.5 ± 0.1 µM.
“Ac-EPSEKRTRLEEEIVEY-NH2 [CDC45_152-166 wild-type]” showed a Kd (KPNA7 ARM major) of 6.6 ± 0.7 µM.
“Ac-LDLDDRWQFKRSQLLD-NH2 [ABRAXAS1_349-364 R361Q]” was tested, and the “weakened binding, mutant vs wild-type peptide” value (KPNA4 ARM major) was 400 fold and the Mutation enrichment score (KPNA4 ARM) was −6.
`CC(=O)NCC(=O)N[C@@H](CC(=O)O)C(=O)N[C@@H](CC(=O)O)C(=O)N[C@@H](CC(=O)O)C(=O)N[C@@H](Cc1c[nH]c2ccccc12)C(=O)N[C@H](C(=O)N[C@@H](Cc1c[nH]cn1)C(=O)N[C@@H](CC(C)C)C(=O)N[C@@H](CO)C(=O)N[C@@H](CO)C(=O)N[C@@H](CCCCN)C(=O)N[C@@H](CCC(=O)O)C(=O)N[C@H](C(=O)N[C@@H](CC(=O)O)C(=O)N[C@@H](CC(C)C)C(=O)N[C@@H](CO)C(N)=O)C(C)C)[C@@H](C)O` [SQSTM1_334-349 P348L] was tested, and the Mutation enrichment score (MAP1LC3B ATG8 [1]) was 7.6, the “effect of the mutation on binding (in words)” value (MAP1LC3B ATG8 [3]; FP affinity measurements, MAP1LC3B ATG8) was “the mutation has no impact on binding; also recorded: did not affect the binding” and the Kd (MAP1LC3B ATG8 [3]) was 0.6 ± 0.1 µM.
For “Ac-EDEVYETVVDTSEEDS-NH2 [BRCA2_292-307 wild-type]”, the Ka (MAP1LC3B ATG8 [2]; replicate 1) was 9160, the “S∆T” value (MAP1LC3B ATG8 [2]; replicate 1) was -1.5 and the “∆H” value (MAP1LC3B ATG8 [2]; replicate 1) was -5832. The “N (stoichiometry of the interaction)” value (MAP1LC3B ATG8 [2]; replicate 1) was 0.70, the Ka (MAP1LC3B ATG8 [2]; replicate 2) was 55000 and the “S∆T” value (MAP1LC3B ATG8 [2]; replicate 2) was 13.7. For the same compound, the “∆H” value (MAP1LC3B ATG8 [2]; replicate 2) was -2389, the “N (stoichiometry of the interaction)” value (MAP1LC3B ATG8 [2]; replicate 2) was 0.684 and the Kd (MAP1LC3B ATG8 [2]; average of the Kd [µM] column, wild-type technical duplicate, mutant technical triplets, read-out: Average Kd) was 64 µM. It also gave a Kd (MAP1LC3B ATG8 [2]; [5]) of 20 to 100 µM and a Kd (MAP1LC3B ATG8 [3]) of 3.12 ± 0.08 µM.
